Data from ChEMBL document CHEMBL4715758, “Hit-to-Lead Optimization of a Novel Class of Potent, Broad-Spectrum Trypanosomacides” (J Med Chem, 2016).
In brackets after ≈: the same amount, converted by molar mass. Activity calls are given as the source filed them. The rule behind the calls is not given here.

Legend:
[1] = Protein binding in human plasma by HPLC-MS analysis; type: ADME, cell-free; conditions: read-out: PPB (converted)
[2] = Metabolic stability in human liver microsomes assessed as degradation half-life measured after 60 mins in presence of NADPH generating system by LC-MS analysis; type: ADME, Microsome; conditions: read-out: T50
[3] = Intrinsic clearance in human liver microsomes assessed per mg protein measured after 60 mins in presence of NADPH generating system by LC-MS analysis; type: ADME, Microsome; conditions: read-out: CLH
L6 = assay: Cytotoxicity against rat L6 cells assessed as reduction in cell viability measured after 72 hrs by alamar blue dye based fluorimetry analysis; conditions: L6, 72 h
Trypanosoma cruzi [4] = assay: Antitrypanosomal activity against Trypanosoma cruzi Tulahuen C4 strain amastigotes infected in rat L6 cells measured after 96 hrs by inverted microscopy analysis; type: functional, organism-based; conditions: Tulahuen C4, L6, 96 h
Leishmania donovani = assay: Antileishmanial activity against Leishmania donovani MHOM/ET/67/L82 amastigotes measured after 72 hrs by alamar blue dye based fluorimetry analysis; type: functional, organism-based; conditions: MHOM/ET/67/L82, 72 h
Trypanosoma cruzi [5] = assay: Antitrypanosomal activity against Trypanosoma cruzi Tulahuen strain trypomastigotes infected in rat H9c2 cells incubated for 72 hrs by DRAQ5 DNA dye based imaging analysis; type: functional, organism-based; conditions: H9c2, 72 h
[6] = Kinetic solubility of compound at pH 6.5 phosphate buffer by nephelometry; type: physicochemical; conditions: read-out: Kinetic_solubility
[7] = Kinetic solubility of compound at pH 2 by nephelometry; type: physicochemical; conditions: buffer, read-out: Kinetic_solubility
[8] = Partition coefficient, log D of compound at pH 7.4 by HPLC; type: physicochemical; conditions: octanol/water
[9] = test system: Trypanosoma brucei rhodesiense; assay: Antitrypanosomal activity against Trypanosoma brucei rhodesiense STIB900 trypomastigotes incubated for 72 hrs by resazurin dye based fluorescence assay; type: functional, organism-based; conditions: STIB900, 72 h
[10] = test system: Trypanosoma brucei brucei; assay: Antitrypanosomal activity against Trypanosoma brucei brucei Lister 427 strain blood stream forms incubated for 48 hrs by resazurin dye based fluorescence assay; type: functional, organism-based; conditions: Lister 427, 48 h
[11] = Metabolic stability in mouse liver microsomes assessed as degradation half-life measured after 60 mins in presence of NADPH generating system by LC-MS analysis; type: ADME, Microsome; conditions: read-out: T50
[12] = Intrinsic clearance in mouse liver microsomes assessed per mg protein measured after 60 mins in presence of NADPH generating system by LC-MS analysis; type: ADME, Microsome; conditions: read-out: CLH
[13] = Selectivity index, ratio of IC50 for cytotoxicity against human HEK293 cells assessed as reduction in cell viability to IC50 for antitrypanosomal activity against Trypanosoma brucei brucei Lister 427 blood stream form; type: toxicity, cell-based; conditions: read-out: Ratio IC50
[14] = Metabolic stability in human liver microsomes assessed as half-life measured after 60 mins in presence of NADPH generating system by LC-MS analysis; type: ADME, Microsome
[15] = Selectivity index, ratio of IC50 for cytotoxicity against rat H9c2 cells assessed as reduction in cell viability to IC50 for antitrypanosomal against Trypanosoma cruzi Tulahuen trypomastigotes infected in rat H9c2 cells; type: toxicity, cell-based; conditions: read-out: Ratio IC50
[16] = Tmax in Balb/c mouse at 50 mg/kg, po administered via gavage; type: ADME, organism-based; conditions: in vivo
Trypanosoma cruzi [17] = assay: Antitrypanosomal activity against Trypanosoma cruzi Brazil trypomastigotes coexpressing luciferase infected in BALB/c mouse model assessed as reduction in parasite load at 50 mg/kg, po BID administered for 5 days followed by cyclophosphamide addition 30 days post last dose and measured 10 days post cyclophosphamide addition; type: functional, organism-based; conditions: time 45.0 day
[18] = Dose normalized AUClast in Balb/c mouse at 50 mg/kg, po administered via gavage in presence of 1-aminobenzotriazole; type: ADME, organism-based; conditions: in vivo
[19] = Toxicity in Balb/c mouse infected with Trypanosoma cruzi Brazil trypomastigotes coexpressing luciferase assessed as ruffled fur at 50 mg/kg, po BID administered for 5 days; type: organism-based; conditions: in vivo, 120 h, time 5 day
[20] = Toxicity in Balb/c mouse infected with Trypanosoma cruzi Brazil trypomastigotes coexpressing luciferase assessed as hunched-back posture at 50 mg/kg, po BID administered for 5 days; type: organism-based; conditions: in vivo, 120 h, time 5 day
[21] = AUClast (0 to t) in Balb/c mouse at 50 mg/kg, po administered via gavage; type: ADME, organism-based; parameters: time 0 - last, route oral, dose 50 mg/kg; conditions: in vivo
[22] = Tmax in Balb/c mouse at 50 mg/kg, po administered via gavage in presence of 1-aminobenzotriazole; type: ADME, organism-based; conditions: in vivo
Trypanosoma cruzi [23] = assay: Antitrypanosomal activity against Trypanosoma cruzi Brazil trypomastigotes coexpressing luciferase infected in BALB/c mouse model assessed as reduction in parasite load at 50 mg/kg, po BID administered for 5 days measured after 10 days; type: functional, organism-based; conditions: time 10.0 day
[24] = Toxicity in Balb/c mouse infected with Trypanosoma cruzi Brazil trypomastigotes coexpressing luciferase assessed as low resistance to handling at 50 mg/kg, po BID administered for 5 days; type: organism-based; conditions: in vivo, 120 h, time 5 day
[25] = AUClast (0 to t) in Balb/c mouse at 50 mg/kg, po administered via gavage in presence of 1-aminobenzotriazole; type: ADME, organism-based; parameters: route oral, time 0 - last, dose 50 mg/kg; conditions: in vivo
[26] = Dose normalized Cmax in Balb/c mouse at 50 mg/kg, po administered via gavage in presence of 1-aminobenzotriazole; type: ADME, organism-based; conditions: in vivo
[27] = Dose normalized AUClast in Balb/c mouse at 50 mg/kg, po administered via gavage; type: ADME, organism-based; conditions: in vivo
[28] = Dose normalized Cmax in Balb/c mouse at 50 mg/kg, po administered via gavage; type: ADME, organism-based; conditions: in vivo
[29] = Cmax in Balb/c mouse at 50 mg/kg, po administered via gavage in presence of 1-aminobenzotriazole; type: ADME, organism-based; parameters: route oral, dose 50 mg/kg; conditions: in vivo
[30] = Cmax in Balb/c mouse at 50 mg/kg, po administered via gavage; type: ADME, organism-based; parameters: route oral, dose 50 mg/kg; conditions: in vivo

Row | half-life [2] | microsomal CLint [3] | IC50 (Trypanosoma cruzi [5]) | IC50 [10] | half-life [11] | microsomal CLint [12] | half-life [14] | Compound | selectivity ratio [13] | selectivity ratio [15] | further results
1 | 10 min | 177 µL/min/mg | 320 nM | – | – | – | – | O=C(NCCc1csc(-c2ccccc2)n1)N1CCCC1 | – | – | fraction unbound [1]: 0.14; IC50 (L6): 144000 nM; IC50 (Trypanosoma cruzi [4]): 96 nM; IC50 (Leishmania donovani): 17000 nM; solubility kinetic [6]: 50 µg/mL (≈ 166 µM); solubility kinetic [7]: > 100 µg/mL; logD [8]: 2.8; IC50 [9]: 46 nM
2 | 4 min | 445 µL/min/mg | – | 26 nM | < 2 min | > 1600 µL/min/mg | – | O=C(NCCc1csc(-c2cccc(F)c2)n1)N1CCCCC1 | 398 | – | –
3 | – | 231 µL/min/mg | 130 nM | – | – | – | 6 min | O=C(NCCc1csc(-c2ccc(F)cc2F)n1)c1cc(F)ccc1F | – | > 398 | –
4 | – | 177 µL/min/mg | 250 nM | – | – | – | 8 min | CCN(CC)C(=O)NCCc1csc(-c2ccc(F)cc2F)n1 | – | > 199 | –
5 | 11 min | 160 µL/min/mg | 30 nM | 24 nM | < 2 min | > 1600 µL/min/mg | – | O=C(NCCc1csc(-c2ccc(F)cc2)n1)N1CCCCC1 | 431 | > 1580 | –
6 | – | – | – | – | – | – | – | O=C(NCCc1csc(-c2ccccc2)n1)c1ccccc1F | – | – | IC50 (L6): 79000 nM; IC50 (Trypanosoma cruzi [4]): 1100 nM; IC50 (Leishmania donovani): 11000 nM; IC50 [9]: 420 nM

Row | Compound | half-life [2] | microsomal CLint [3] | IC50 (Trypanosoma cruzi [5]) | IC50 [10] | half-life [11] | microsomal CLint [12] | half-life [14] | selectivity ratio [13] | selectivity ratio [15] | further results
7 | O=C(NCCc1csc(-c2ccc(F)cc2F)n1)N1CCCCC1 | 8 min | 225 µL/min/mg | 20 nM | 24 nM | < 2 min | > 1600 µL/min/mg | 5 min | 433 | > 3160 | Tmax [16]: 15 min; Activity (Trypanosoma cruzi [17]): inactive; AUClast/dose [18]: 295 ng·h/mL/mg/kg; Activity [19]: Toxic; Activity [20]: Toxic; AUC(0-t) [21]: 127 ng·h/mL; Tmax [22]: 30 min; Activity (Trypanosoma cruzi [23]): Active; Activity [24]: Toxic; AUC(0-t) [25]: 14800 ng·h/mL; Cmax/dose [26]: 142 kg·ng/mL/mg; AUClast/dose [27]: 2.54 ng·h/mL/mg/kg; Cmax/dose [28]: 4.3 kg·ng/mL/mg; Cmax [29]: 7090 ng/mL; Cmax [30]: 212 ng/mL
